Results: PMC9518609, “Design and synthesis of new trimethoxylphenyl-linked combretastatin analogues loaded on diamond nanoparticles as a panel for ameliorated solubility and antiproliferative activity” (Journal of Enzyme Inhibition and Medicinal Chemistry, 2022)

Experiments:
Assay type in all cases: cell-based
[1] = tested on: β-tubulin; assay: β-tubulin polymerisation inhibition assay (Human Beta-tubulin ELISA kit) on MDA-MB-231 cells; conditions: MDA-MB-231 cell line, each compound at its IC50 concentration
Description: Trimethoxy phenyl fragment-containing natural stilbenoid-derived molecules, such as Colchicine and CA-4 bind to β-tubulin subunit at the colchicine binding site resulting in inhibition of microtubule assembly and suppression of its formation. […] From the obtained results it can be concluded that the antiproliferative activity of the synthesised triazinone-linked CA-4 derivatives may be derived from the inhibition of microtubule assembly.
Triazinone derivatives 6 and 12 were assessed for their tubulin inhibitory activity according to manufacturer’s instructions using # abcam Human Beta-tubulin simple step ELISA Kit ab245722.
(§1) Part I: Biological Studies
(§2) 4.3. Biological evaluation
(§3) 4.3.1. Cytotoxic activity evaluation
(§4) The cytotoxic actvity of the synthesized derivatives 2a-13e was measured in MDA-MB-231 breast cancer cell line and derivatives 6 and 12 in MCF-10A […].
(§5) Cell viability assay was assessed using MTT assay method. Cells at density of 1 x 104 were seeded in a 96-well plate at 37 °C for 24 h under 5% CO2. After incubation, the cells were treated with different concentrations of the test schiff bases 2a-13e and incubated for 24 h, then 20 µl of MTT solution at 5 mg/mL was applied and incubated for 4 h at 37 °C.
Dimethyl sulphoxide (DMSO) in volume of 100 µl was added to each well to dissolve the purple formazan that had formed. The color intensity of the formazan product, which represents the growth condition of the cells, is quantified by using an ELISA plate reader (EXL 800, USA) at 570 nm absorbance. The experimental conditions were carried out with at least three replicates, and the experiments were repeated at least three times.
4.3.2. Tubulin inhibitions Assay
(§6) Compounds 6, 12 and CA-4 were evaluated for their tubulin inhibitory activity according to manufacturer’s instructions using # abcam Human Beta-tubulin simplestep ELISA Kit ab245722. MDA-MB-231 cells were trypsinized, counted and seeded at the 2 × 105 into 96-well micro titer plates. […]
(§7) (O.D.) was measured at 450±10 nm using microplate reader (Spectromax Plus 96 well plate […]

[2] = tested on: MCF-10A; assay: MTT cytotoxic activity against breast MCF-10A cell line; conditions: MTT assay, 24 h treatment
Text: All the synthesised compounds were screened for their cytotoxic activity against breast MDA-MB-231 cancer cell line and compounds 6 and 12 against breast MCF-10A cell line taking CA-4 as a positive control for the analysis. The in vitro cytotoxicity results of the prepared compounds were systematised in Table 1. […] Structurally, the prepared molecules contain three structural variations; including rotatable hydrazide derivatives, the core exchange with imidazolone ring, and the ring expansion with triazinone motif. […] It is noticed that directly attached benzene ring to triazinone scaffold (compound 6) or bioisosteric group (thiazolyl ester) as in compound 12, may contribute to the astonishing cytotoxicity against breast MDA-MB-231 cancer cells.
as §1, §2, §3, §4, §5
Dimethyl sulphoxide (DMSO) in volume of 100 µl was added to each well to dissolve the purple formazan that had formed. The color intensity of the formazan product, which represents the growth condition of the cells, is quantified by using an ELISA plate reader (EXL 800, USA) at 570 nm absorbance. […]
as §6, §7

[3] = tested on: MDA-MB-231 cells; assay: Annexin V-FITC/PI apoptosis staining assay; conditions: MDA-MB-231, at IC50, 24 h; for percentage of late apoptotic cells (upper right quadrant): untreated control 0.13%
Description: The effect of compounds 6 and 12 on apoptosis percentage rate was carried out using annexin V-FITC/Propidium iodide (PI) biparametric cytofluorimetric double staining analysis in MDA-MB-231 cells.
Apoptosis in MDA-MB-231 cells was investigated using a fluorescent Annexin V-FITC/PI detection kit (BioVision Annexin V-FITC Apoptosis Detection Kit, Catalog #: K101) by flow cytometry assay. All experimental steps were conducted as reported earlier. […]
4.3.4.1. Apoptosis assay for compounds 6 and 12
Apoptosis in MDA-MB-231 cells was investigated using fluorescent Annexin V-FITC/ PI detection kit (BioVision Annexin V-FITC Apoptosis Detection Kit, Catalog #: K101) by flow cytometry assay. MDA-MB-231 cells at a density of 2 × 10^5 per well were treated […]
stained with Annexin V-FITC/ PI dye for 15 min in the dark at 37 °C. […]
All experiments were done in triplicates. […]

Row | Compound | % Inhibition of β-tubulin polymerisation [1] [%] | IC50 ([2]; Homo sapiens, MCF-10A) [µM] | increase of percentage of early apoptotic cells relative to no treatment control [3] [fold] | increase of percentage of total apoptotic cells compared with no treatment control [3] [fold] | percentage of late apoptotic cells (upper right quadrant) [3] [%] | IC50 [2] [µM]
1 | COc1cc(C=C2N=C(c3cc(OC)c(OC)c(OC)c3)N(c3ccccc3)NC2=O)cc(OC)c1OC [Compound 6, 2-phenyl-5-(3,4,5-trimethoxybenzylidene)-3-(3,4,5-trimethoxyphenyl)-1,2-dihydro-1,2,4-triazin-6(5H)-one] | 77.61 ± 0.10 | 19.5 ± 2.15 | 6.80 | 21.86 | 23.28 | 
2 | ethyl 2-(2-(6-oxo-5-(3,4,5-trimethoxybenzylidene)-3–(3,4,5-trimethoxyphenyl)-5,6-dihydro-1,2,4-triazin-2(1H)-yl)thiazol-4-yl)acetate [Compound 12] | 68.28 ± 0.16 |  | 4.36 | 14.98 | 17.68 | 14.6 ± 1.96
